According to US12060349B2, “Glucosylceramide synthase inhibitors” (Genzyme Corporation, priority 2012, dated 2024):
pIC50: −log10 of the molar value. Where two headings read alike, the source gives them in different places.

What was measured:
C32 human melanoma cells = assay: cell viability in the C32 cell-based assay (Viability, C32 IC50); settings: Homo sapiens, concentration causing 50% cell death, values greater than 10 represent a lack of cell death
How it was run: (§1)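 Two melanoma lines, mouse B16 and human C32, were treated and surface GM3 quantified by antibody immunofluorescence for IC50. A parallel viability readout gives the concentration killing 50% of cells, with values over 10 indicating no cell death.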

[1] = test system: GM3 expression on the cell surface, C32 human melanoma cells; assay: cell based phenotypic assay, cell surface GM3 by antibody mediated immunofluorescence, C32 (GM3 C32 IC50); settings: Homo sapiens, 50% inhibition of GM3 expression on the cell surface
How it was run: (§2)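 Both lines undergo the phenotypic GM3 assay, and viability is recorded from that same cell-based run.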

[2] = test system: GM3 expression on the cell surface, B16 mouse melanoma cells; assay: cell based phenotypic assay, cell surface GM3 by antibody mediated immunofluorescence, B16 (GM3 B16 IC50); settings: Mus musculus, 50% inhibition of GM3 expression on the cell surface
How it was run: as §2

[3] = biological target: T1, glucosylceramide synthase (Homo sapiens, UniProt Q16739); assay: microsomal assay measuring conversion of ceramide to glucosylceramide by HPLC (GCS IC50); assay type: biochemical; settings: concentration causing 50% inhibition of glucosylceramide synthase activity
T1 construct: Microsomes were isolated from A375 human melanoma cells; endogenous in cells; host or cells: A375 human melanoma cells (microsomal fraction, 100,000 g pellet)
T1 sequence (Q16739 1-394): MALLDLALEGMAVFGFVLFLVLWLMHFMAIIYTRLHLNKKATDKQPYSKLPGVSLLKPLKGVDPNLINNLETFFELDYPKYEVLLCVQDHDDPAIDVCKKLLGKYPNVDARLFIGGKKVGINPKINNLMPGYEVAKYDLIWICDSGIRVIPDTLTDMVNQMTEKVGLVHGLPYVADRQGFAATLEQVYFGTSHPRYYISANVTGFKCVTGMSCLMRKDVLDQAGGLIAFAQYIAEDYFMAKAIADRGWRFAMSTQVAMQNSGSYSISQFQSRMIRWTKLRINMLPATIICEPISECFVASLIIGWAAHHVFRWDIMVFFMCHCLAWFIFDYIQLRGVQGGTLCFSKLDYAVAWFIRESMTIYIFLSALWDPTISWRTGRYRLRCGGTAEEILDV
How it was run: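 Microsomal preparation assayed for glucosylceramide synthase by direct HPLC measurement of ceramide conversion to glucosylceramide. GCS IC50 is the compound concentration giving 50% inhibition of enzyme activity.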

B16 mouse melanoma cells = assay: cell viability in the B16 cell-based assay (Viability, B16 IC50); settings: Mus musculus
How it was run: as §1

[4] = C32, read-out: Viability, C32 IC50, C32 cells
[5] = read-out: GM3 C32 IC50, C32 human melanoma cells
[6] = read-out: GM3 B16 IC50, B16 mouse melanoma cells
[7] = B16, read-out: Viability, B16 IC50
[8] = C32, C32 cells, read-out: Viability, C32 IC50
[9] = C32 human melanoma cells, read-out: GM3 C32 IC50
[10] = B16 mouse melanoma cells, read-out: GM3 B16 IC50
[11] = B16, B16 cells, concentration causing 50% cell death, values greater than 10 represent a lack of cell death, read-out: Viability, B16 IC50

pIC50 [1, 9]	pIC50 [2, 10]	Compound	pIC50 (C32 human melanoma cells; [4])	pIC50 [1, 5]	pIC50 [2, 6]	pIC50 [3]	pIC50 (B16 mouse melanoma cells; [7])	pIC50 (C32 human melanoma cells; [8])	pIC50 (B16 mouse melanoma cells; [11])
		COCCOc1ccc(-c2ccc(C(C)(C)NC(=O)OC3CN4CCC3CC4)cc2)cc1 (centres unmarked) [Example 155, Quinuclidin-3-yl (2-(4′-(2-methoxyethoxy)-[1,1′-biphenyl]-4-yl)propan-2-yl)carbamate]	6.67	9.18	7.41	8.46	6.00		
9.26	8.72	COCCOc1ccc(-c2ccc(C(C)(C)NC(=O)NC3(C)CCN4CCC3CC4)cc2)cc1 (centres unmarked) [Example 160, 1-(2-(4′-(2-Methoxyethoxy)-[1,1′-biphenyl]-4-yl)propan-2-yl)-3-(4-methyl-1-azabicyclo[3.2.2]nonan-4-yl)urea]				8.41		6.00	6.00
7.49	6.51	COCCOc1ccc(-c2ccc(C(C)(C)NC(=O)N3CCN4CCC3CC4)cc2)cc1 [Example 161, N-(2-(4′-(2-Methoxyethoxy)-[1,1′-biphenyl]-4-yl)propan-2-yl)-1,4-diazabicyclo[3.2.2]nonane-4-carboxamide]				6.60		5.50	5.50
9.62	9.29	COCCOc1ccc(-c2ccc(C3(NC(=O)NC4(C)CCN5CCC4CC5)CC3)cc2)cc1 (centres unmarked) [Example 165, 1-(1-(4′-(2-Methoxyethoxy)-[1,1′-biphenyl]-4-yl)cyclopropyl)-3-(4-methyl-1-azabicyclo[3.2.2]nonan-4-yl)urea]				8.38		7.50	6.50
		COCCOc1ccc(-c2ccc(C3(NC(=O)OC4CN5CCC4CC5)CC3)cc2)cc1 (centres unmarked) [Example 166, Quinuclidin-3-yl (1-(4′-(2-methoxyethoxy)-[1,1′-biphenyl]-4-yl)cyclopropyl)carbamate]	6.67	8.74	7.66	8.24	6.50		
		COCCOc1cccc(-c2ccc(C(C)(C)NC(=O)OC3CN4CCC3CC4)cc2)c1 (centres unmarked) [Example 167, Quinuclidin-3-yl (2-(3′-(2-methoxyethoxy)-[1,1′-biphenyl]-4-yl)propan-2-yl)carbamate]	6.00	8.27	6.96	7.98	≤ 5.00		
8.48	7.10	COCCOc1cccc(-c2ccc(C(C)(C)NC(=O)OC3CCN4CCC3CC4)cc2)c1 (centres unmarked) [Example 168, 1-Azabicyclo[3.2.2]nonan-4-yl (2-(3′-(2-methoxyethoxy)-[1,1′-biphenyl]-4-yl)propan-2-yl)carbamate]				8.25		6.00	≤ 5.00
7.74	6.55	COCCOc1cccc(-c2ccc(C(C)(C)NC(=O)N3CCN4CCC3CC4)cc2)c1 [Example 169, N-(2-(3′-(2-Methoxyethoxy)-[1,1′-biphenyl]-4-yl)propan-2-yl)-1,4-diazabicyclo[3.2.2]nonane-4-carboxamide]				6.59		6.00	≤ 5.00
		COCCOc1ccc(-c2cccc(C(C)(C)NC(=O)OC3CN4CCC3CC4)c2)cc1 (centres unmarked) [Example 170, Quinuclidin-3-yl (2-(4′-(2-methoxyethoxy)-[1,1′-biphenyl]-3-yl)propan-2-yl)carbamate]	≤ 5.00	8.31	7.53	7.57	≤ 5.00		
8.84	7.92	COCCOc1ccc(-c2cccc(C(C)(C)NC(=O)OC3CCN4CCC3CC4)c2)cc1 (centres unmarked) [Example 171, 1-Azabicyclo[3.2.2]nonan-4-yl (2-(4′-(2-methoxyethoxy)-[1,1′-biphenyl]-3-yl)propan-2-yl)carbamate]				7.49		5.40	7.13
		COCCCOc1ccc(-c2ccc(C(C)(C)NC(=O)OC3CN4CCC3CC4)cc2)cc1 (centres unmarked) [Example 172, Quinuclidin-3-yl (2-(4′-(3-methoxypropoxy)-[1,1′-biphenyl]-4-yl)propan-2-yl)carbamate]	≤ 5.00	8.81	7.18	8.62	5.08		
7.65	6.41	COCCCOc1ccc(-c2ccc(C(C)(C)NC(=O)N3CCN4CCC3CC4)cc2)cc1 [Example 174, N-(2-(4′-(3-Methoxypropoxy)-[1,1′-biphenyl]-4-yl)propan-2-yl)-1,4-diazabicyclo[3.2.2]nonane-4-carboxamide]				6.87		6.00	≤ 5.00
9.30	8.76	COCCCOc1ccc(-c2ccc(C3(NC(=O)NC4(C)CCN5CCC4CC5)CC3)cc2)cc1 (centres unmarked) [Example 177, 1-(1-(4′-(3-Methoxypropoxy)-[1,1′-biphenyl]-4-yl)cyclopropyl)-3-(4-methyl-1-azabicyclo[3.2.2]nonan-4-yl)urea]				8.80		≤ 5.00	≤ 5.00
8.58	7.17	COCCCOc1ccc(-c2ccc(C3(NC(=O)OC4CCN5CCC4CC5)CC3)cc2)cc1 (centres unmarked) [Example 178, 1-Azabicyclo[3.2.2]nonan-4-yl (1-(4′-(3-methoxypropoxy)-[1,1′-biphenyl]-4-yl)cyclopropyl)carbamate]				8.45		5.15	≤ 5.00

Compound	pIC50 [1, 9]	pIC50 [2, 10]	pIC50 (C32 human melanoma cells; [4])	pIC50 [1, 5]	pIC50 [2, 6]	pIC50 [3]	pIC50 (B16 mouse melanoma cells; [7])	pIC50 (C32 human melanoma cells; [8])	pIC50 (B16 mouse melanoma cells; [11])
COCCOc1ccc(-c2ccc(C(C)(C)NC(=O)N[C@@]3(C)CN4CCC3CC4)cc2)cc1 [Example 157, (R)-1-(2-(4′-(2-Methoxyethoxy)-[1,1′-biphenyl]-4-yl)propan-2-yl)-3-(3-methylquinuclidin-3-yl)urea]	7.38	6.27				6.64		5.50	5.50
COCCOc1ccc(-c2ccc(C(C)(C)NC(=O)N[C@]3(C)CN4CCC3CC4)cc2)cc1 [Example 158, (S)-1-(2-(4′-(2-Methoxyethoxy)-[1,1′-biphenyl]-4-yl)propan-2-yl)-3-(3-methylquinuclidin-3-yl)urea]	9.28	8.12				8.55		6.20	6.20
CCC1(NC(=O)NC(C)(C)c2ccc(-c3ccc(OCCOC)cc3)cc2)CN2CCC1CC2 (centres unmarked) [Example 159, 1-(3-Ethylquinuclidin-3-yl)-3-(2-(4′-(2-methoxyethoxy)-[1,1′-biphenyl]-4-yl)propan-2-yl)urea]	9.20	8.35				8.25		6.00	6.00
COCCOc1ccc(-c2ccc(C3(NC(=O)NC4CN5CCC4CC5)CC3)cc2)cc1 (centres unmarked) [Example 162, 1-(1-(4′-(2-Methoxyethoxy)-[1,1′-biphenyl]-4-yl)cyclopropyl)-3-(quinuclidin-3-yl)urea]	8.66	7.14				7.55		6.00	5.45
COCCOc1ccc(-c2ccc(C3(NC(=O)NC4(C)CN5CCC4CC5)CC3)cc2)cc1 (centres unmarked) [Example 163, 1-(1-(4′-(2-Methoxyethoxy)-[1,1′-biphenyl]-4-yl)cyclopropyl)-3-(3-methylquinuclidin-3-yl)urea]	9.27	8.18				8.07		6.76	6.00
CCC1(NC(=O)NC2(c3ccc(-c4ccc(OCCOC)cc4)cc3)CC2)CN2CCC1CC2 (centres unmarked) [Example 164, 1-(3-Ethylquinuclidin-3-yl)-3-(1-(4′-(2-methoxyethoxy)-[1,1′-biphenyl]-4-yl)cyclopropyl)urea]	9.69	8.60				8.21		6.76	6.00
COCCCOc1ccc(-c2ccc(C(C)(C)NC(=O)NC3(C)CN4CCC3CC4)cc2)cc1 (centres unmarked) [Example 173, 1-(2-(4′-(3-Methoxypropoxy)-[1,1′-biphenyl]-4-yl)propan-2-yl)-3-(3-methylquinuclidin-3-yl)urea]	9.12	7.69				8.70		≤ 5.00	≤ 5.00
COCCCOc1ccc(-c2ccc(C3(NC(=O)NC4(C)CN5CCC4CC5)CC3)cc2)cc1 (centres unmarked) [Example 176, 1-(1-(4′-(3-Methoxypropoxy)-[1,1′-biphenyl]-4-yl)cyclopropyl)-3-(3-methylquinuclidin-3-yl)urea]	8.83	7.66				8.39		≤ 5.00	≤ 5.00
